Laboratory results: US20230099204A1, “PHARMACEUTICAL COMPOSITION FOR PREVENTION OR TREATMENT OF CANCER IN WHICH KRAS MUTATION AND ACTIVATED RON ARE PRESENT” (WELLMARKER BIO CO., LTD., priority 2020, published 2023)
pIC50: −log10 of the molar value.

How the values were obtained:
[1] = test system: SNUC2A; assay: MTS assay, cytotoxicity on colorectal cancer cell line SNUC2A; assay type: cell-based; settings: RON mutation negative, KRAS G12D, 72 hours
Experimental: (§1) MTS assay was performed to compare cytotoxicity of the compounds of Example 1, Example 2, Example 3, Example 4, Example 5, Example 6, and positive control 1 on a colorectal cancer cell line, and a cell death rate of the colorectal cancer cell line was analyzed to compare anticancer activity of the compounds.
(§2) The MTS assay was performed by seeding each colorectal cell line in a 96-well plate at 1,000 cells per well, and after 24 hours, performing treatment with the compounds of Examples 1 to 6 and positive control 1 at various concentrations (0.000001 μM to 10 μM) in 100 μL of 10% FBS-RPMI medium (WELGENE Inc.) per well. The cells were incubated for 72 hours. Then, 20 μL of MTS solution (Promega) was added thereto, and the cells were incubated for 2 hours. Then, the absorbance was measured at 490 nm. The IC50 values for the compounds of Examples 1 to 6 and positive control 1 were calculated using GraphPad Prism™ 5 to investigate cytotoxicity.

[2] = test system: HCT8; assay: MTS assay, cytotoxicity on colorectal cancer cell line HCT8; assay type: cell-based; settings: Homo sapiens, HCT-8, RON wt, KRAS G13D, 72 hours
Experimental: as §1, §2

[3] = test system: HCT15; assay: MTS assay, cytotoxicity on colorectal cancer cell line HCT15; assay type: cell-based; settings: Homo sapiens, HCT-15, RON Δ160, KRAS G13D, 72 hours
Experimental: as §1, §2

[4] = test system: SW480; assay: MTS assay, cytotoxicity on colorectal cancer cell line SW480; assay type: cell-based; settings: Homo sapiens, RON Δ155, KRAS G12V, 72 hours
Experimental: as §1, §2

[5] = test system: SW620; assay: MTS assay, cytotoxicity on colorectal cancer cell line SW620; assay type: cell-based; settings: Homo sapiens, SW-620, RON Δ155, KRAS G12V, 72 hours
Experimental: as §1, §2

[6] = test system: SNU-C2A; assay: Cell death induction, trypan blue cell counting, SNU-C2A; assay type: cell-based; settings: SNUC2A with inactive RON; 1 μM; 48 hours; FIG. 1
Experimental: (§3) Based on the results above, to identify the cell death-inducing ability of the compounds of Example 1 and positive control 1, which are representative materials, preparation was performed by seeding respective colorectal cancer cell lines SNU-[…], HCT8, T84, and SW620 onto 60-mm plates at 3×10^5 cells, and then incubation was performed for 24 hours. Thereafter, treatment with each of Example 1 and positive control 1 was performed at 1μM and incubation was performed for 48 hours. After 48 hours, the cells and cell suspensions were collected by treatment with trypsin, resuspended in 1× PBS and stained using a trypan blue solution (Sigma, cat# T8154). The stained cells were counted using a hemocytometer. Cell counting was repeated, and the mean and the standard deviation were calculated.

[7] = test system: HCT8; assay: Cell death induction, trypan blue cell counting, HCT8; assay type: cell-based, human; settings: HCT8 (pTyr-wtRON); 1 μM; 48 hours; FIG. 1
Experimental: as §3

[8] = test system: T84; assay: Cell death induction, trypan blue cell counting, T84; assay type: cell-based; settings: T84 with a RON mutation; 1 μM; 48 hours; FIG. 1
Experimental: as §3

[9] = test system: colorectal cancer patient-derived cell lines; assay: Cell death induction (cleaved caspase 3 staining) in colorectal cancer patient-derived cell lines; assay type: cell-based, human; settings: 1 μM, FIG. 4
[10] = test system: HCT8 (KRAS G13D/pTyr-wtRON(+)); assay: Cell line HCT8-transplanted mouse model; assay type: in vivo, BALB/c nude mice
Experimental: 5-Week-old female BALB/c nude mice were purchased and acclimatized for 1 week. Then, human colorectal cancer patient-derived cell line SW620 (KRAS
G12V/mRON Δ155) at 5×10^6 cells/mouse was injected subcutaneously (100 μL) into the right dorsal side of the mice. The compound of Example 1 was orally administered when the tumor reached a size of about 100 mm^3. The drug was administered once a day for 4 weeks, and tumor size and mouse body weight were measured twice a week. After completion of the drug administration, the experimental animals were euthanized, and then the tumors were extracted and weighed for comparative analysis.
A portion of the extracted tumor tissue was fixed in 10% formalin and processed into a paraffin block. Then, the block was made into sections. Staining of the slide was performed through immunochemical staining. Another portion of the extracted tumor tissue was subjected to lysis, and then Western blotting was used to identify changes in expression of respective proteins.
The experiment was conducted in the same method as the procedure of Experimental Example 3, except that human colorectal cancer patient-derived cell line HCT8 (KRAS G13D/pTyr-wtRON(+)) was used in place of the human colorectal cancer patient-derived cell line SW620 (KRAS G12V/mRON Δ155), and the respective compounds of Example 1, positive control 1, and positive control 2 were administered.

[11] = test system: HCT15 (KRAS G13D/mRON Δ160); assay: Cell line HCT15-transplanted mouse model; assay type: in vivo, BALB/c nude mice
Experimental: 5-Week-old female BALB/c nude mice were purchased and acclimatized for 1 week. Then, human colorectal cancer patient-derived cell line HCT15 (KRAS G13D/mRON Δ160) at 5×10^6 cells/mouse was injected subcutaneously (100 μL) into the right dorsal side of the mice. The compound of Example 1 was orally administered when the tumor reached a size of about 100 mm^3 The drug was administered once a day for 4 weeks, and tumor size and mouse body weight were measured twice a week.
After completion of the drug administration, the tumor tissues were analyzed.

[12] = test system: SW620 (KRAS G12V/mRON Δ155); assay: Mechanism of action in SW620 overexpressing β-catenin (trypan blue exclusion, Western blotting); assay type: cell-based, human
Experimental: Each of an empty vector and human beta-catenin pcDNA3.1 (Plasmid #16828, Addgene) that is a vector into which β-catenin DNA (X87838.1, GENE ID: 1499) is introduced, was transfected into the human colorectal cancer patient-derived cell line SW620 (KRAS G12V/mRON […]), and then treatment with the compound of Example 1 was performed. Subsequently, all cells were collected when 48 hours had elapsed. Cell death induction efficacy was compared and analyzed using a trypan blue exclusion assay. As described above, the cell line SW620 was caused to overexpress β-catenin. Then, treatment with the compound of Example 1 was performed, and cell death induction efficacy was observed. In addition, as described above, the cell line SW 620 was caused to overexpress β-catenin. Then, the sample treated with the compound of Example 1 was used to identify expressions of β-catenin, p-ERK, ERK, c-myc, cyclin D1, pTyr-mRON, mRON, and cleaved caspase 3 with Western blotting.

CCOc1ccn(-c2ccc(F)cc2)c(=O)c1C(=O)Nc1ccc(Oc2ccnc3cc(-c4ccc(CN5CCOCC5)cn4)sc23)c(F)c1.Cl [Example 1, 4-ethoxy-N-[3-fluoro-4-({2-[5-(morpholinomethyl)pyridine-2-yl]thieno[3,2-b]pyridine-7-yl}oxy)phenyl]-1-(4-fluorophenyl)-2-oxo-1,2-dihydropyridine-3-carboxamide hydrochloride]
pIC50 [1]: 5.24
pIC50 [2]: 6.38
pIC50 [3]: 6.64
pIC50 [4]: 6.47
pIC50 [5]: 6.49
cell death induction efficacy [6]: no response
cell death induction efficacy [7]: cell-killing efficacy was exhibited
cell death induction efficacy [8]: cell death induction efficacy was exhibited regardless of mutation type
cell death induction efficacy ([9]; patient-derived cell line expressing a RON mutation or pTyr-wtRON): exhibited cell death induction efficacy
cell death induction efficacy ([9]; patient-derived cell line with inactive RON): did not exhibit cell death induction efficacy
Tumor growth inhibition (TGI, %) ([10]; 10 mg/kg, oral, once a day for 4 weeks): 58.5 ± 9.1%
tumor growth inhibitory efficacy ([10]; compared with positive control 1 and positive control 2, FIG. 8): high tumor growth inhibitory efficacy
expression of cleaved caspase 3 in tumor tissue ([11]; FIG. 13): induced expression
expression of cyclin D1 (PD marker) in tumor tissue ([11]; FIG. 13): decreased expression
expression of pTyr-mRON in tumor tissue ([11]; FIG. 13): decreased expression
tumor growth inhibitory efficacy ([11]; oral, once a day for 4 weeks, FIG. 12): high tumor growth inhibitory efficacy
expression of pTyr-mRON ([12]; SW620, empty vector or β-catenin overexpressed, Western blotting, FIG. 11): decreased by the compound of Example 1 regardless of β-catenin
cell death induction efficacy ([12]; SW620 overexpressing β-catenin, 48 hours, trypan blue exclusion, FIG. 10): cell death induction efficacy of the compound was decreased
expression of p-ERK, c-myc, and cyclin D1 ([12]; SW620 transfected with the empty vector, Western blotting, FIG. 11): decreased
expression of p-ERK, c-myc, and cyclin D1 ([12]; SW620 with β-catenin overexpressed, Western blotting, FIG. 11): increased again
